From patent publication US20050197365A1, “Diamino thiazoloindan derivatives and their use” (priority 2004, published 2005)

Key:
[1] = system: EAE; experiment: Experimental Allergic Encephalomyelitis (EAE) model of MS; assay type: in vivo, mice; details: for incidence Value: mice, 10/group; for GMS % inhibition (first GMS column) / GMS % inhibition (second GMS column) / incidence % inhibition: vs methyl cellulose control; for GMS Value (first GMS column) / GMS Value (second GMS column): EAE score scale 0-5
[2] = system: MPP+ treated PC-12 cells; experiment: Effect on MPP+ treated PC-12 cells (neuroprotection, LDH release); assay type: cell-based; details: 1000 μM MPP+ for 48 hours, LDH in medium
Description: Pheochromocytoma PC-12 cells (at a density of 200,000 cells/well) were cultured for 10 days with 50 ng/ml NGF on 6-well culture dishes coated with […] rat tail type I collagen (BD Biosciences, Bedford, Mass., USA). At the day of the experiment the morphological differentiation of the cells was very advanced (typical network formation). In order to initiate the neurotoxic insult, cells were treated with 1000 μM of 1-methyl-4-phenylpyrdinium (MPP+) iodide salt from RBI chemicals (Natick, Mass., USA) for 48 hours in the absence or presence of tested compounds, added to the culture 30 min. prior to MPP+ administration. […] At the cellular level, neuronal cell death is induced by several mechanisms including pathological concentrations of intracellular calcium and free oxygen radicals. Therefore the positive controls in this experiment were nimodipine at the concentration of 10 μM (RBI chemicals, Natick, Mass., USA) (a potent L-type calcium channel blocker) and 4-hydroxy-2,2,6,6-tetramethylpiperidyne-1-oxyl (tempol, a potent antioxidant) at a concentration of 500 μM, (Sigma, St Louis, Mo., USA). At the end of the experiment cell death was measured by assessing Lactate dehydrogenase (LDH) activity in the medium. High medium LDH indicated increased neuronal death that promoted leakage of this cytoplasmic enzyme into the medium.
Measuring lactate dehydrogenase activity in the medium was performed using a Sigma Diagnostics LD-L reagent. LDH activity was spectrophotometrically monitored at 340 nm by following the rate of conversion of oxidized nicotinamide adenine dinucleotide (NAD^+) to the reduced form of (NADH). Total LDH of each culture (extracellular+intracellular) was obtained by measuring LDH in the medium after freezing and thawing of the cultures. Basal LDH release was measured in untreated cultures (no MPP+). The neurotoxic effect was calculated according to the formula: (LDHs−LDHb)/LDHt×100. (s=sample; b=basal; t=total). Each compound was tested in sixplicate.
To calculate the percentage of neuroprotection for each set of sixplicate experiments, the average neurotoxicity was calculated and the following calculation was undertaken: 100−([neurotoxicity test compound/neurotoxicity MPP^+]×100).

[3] = 2 × 10 mg/kg oral (twice a day)
[4] = Dose 1 μM, NGF-differentiated PC-12 cells
[5] = Dose 10 μM, NGF-differentiated PC-12 cells

| SMILES | Mean duration ([1]; 2 × 5 mg/kg oral) [days] | incidence Value ([1]; 2 × 5 mg/kg oral (twice a day)) | GMS % inhibition (first GMS column) ([1]; 2 × 5 mg/kg oral) [%] | GMS % inhibition (second GMS column) ([1]; 2 × 5 mg/kg oral) [%] | incidence % inhibition ([1]; 2 × 5 mg/kg oral) [%] | GMS Value (first GMS column) ([1]; 2 × 5 mg/kg oral) | GMS Value (second GMS column) ([1]; 2 × 5 mg/kg oral) | Mean duration ([1]; 2 × 10 mg/kg oral) [days] | incidence Value [1, 3] | GMS % inhibition (first GMS column) ([1]; 2 × 10 mg/kg oral) [%] | GMS % inhibition (second GMS column) ([1]; 2 × 10 mg/kg oral) [%] | incidence % inhibition ([1]; 2 × 10 mg/kg oral) [%] | GMS Value (first GMS column) ([1]; 2 × 10 mg/kg oral) | GMS Value (second GMS column) ([1]; 2 × 10 mg/kg oral) | % neuroprotection [2, 4] | % neuroprotection [2, 5] | % neuroprotection ([2]; Dose 1000 μM (positive control)) [%] |
| --- | --- | --- | --- | --- | --- | --- | --- | --- | --- | --- | --- | --- | --- | --- | --- | --- | --- |
| C#CCNC1CCc2cc3sc(N)nc3cc21.Cl.Cl (stereo not drawn) [Compound A-1, N5-prop-2-ynyl-6,7-dihydro-5H-1-thia-3-aza-s-indacene-2,5-diamine diHCl] | 3.0 ± 6.3 | 2/10 | 40.0 | 33.3 | 50.0 | 0.6 ± 1.3 | 0.4 ± 0.8 | 1.8 ± 5.7 | 1/10 | 70.0 | 66.7 | 75.0 | 0.3 ± 0.9 | 0.2 ± 0.6 | 50% | 60% | – |
| C#CCNC1CCc2ccc3nc(N)sc3c21.Cl.Cl (stereo not drawn) [Compound B-1, N8-prop-2-ynyl-7,8-dihydro-6H-1-thia-3-aza-as-indacene-2,8-diamine diHCl] | 0.1 ± 0.3 | 1/10 | 90.0 | 99.2 | 75.0 | 0.1 ± 0.3 | 0.005 ± 0.02 | 3.3 ± 7.0 | 2/10 | 60.0 | 50.0 | 50.0 | 0.4 ± 1.0 | 0.3 ± 0.8 | 60-87% | 58-81% | – |
| CC1(C)CC(O)CC(C)(C)N1[O] [Tempol, 4-hydroxy-2,2,6,6-tetramethylpiperidyne-1-oxyl, reference compound] | – | – | – | – | – | – | – | – | – | – | – | – | – | – | – | – | 100 |
